pIC50, pKi: −log10 of the molar value. Counter-ions that a name gives are not always drawn.
Key:
human FXa = human FXa (Homo sapiens, UniProt P00742); assay: Direct inhibition of FXa, chromogenic substrate hydrolysis assay; format: biochemical
Human FIIa = Human FIIa (Homo sapiens, UniProt P00734); assay: Chromogenic substrate hydrolysis assay, FIIa; format: biochemical; conditions: FXa over Human FIIa
Human FVIIa = Human FVIIa (Homo sapiens, UniProt P08709); assay: Chromogenic substrate hydrolysis assay, FVIIa; format: biochemical; conditions: FXa over Human FVIIa
Human FIXa = Human FIXa (Homo sapiens, UniProt P00740); assay: Chromogenic substrate hydrolysis assay, FIXa; format: biochemical; conditions: FXa over Human FIXa
Human FXIa = Human FXIa (Homo sapiens, UniProt P03951); assay: Chromogenic substrate hydrolysis assay, FXIa; format: biochemical; conditions: FXa over Human FXIa
Human FXIIa = target: T1, Human FXIIa (Homo sapiens, UniProt P00748); assay: Chromogenic substrate hydrolysis assay, FXIIa; format: biochemical; conditions: FXa over Human FXIIa
T1 sequence (P00748 373-615 limits assumed): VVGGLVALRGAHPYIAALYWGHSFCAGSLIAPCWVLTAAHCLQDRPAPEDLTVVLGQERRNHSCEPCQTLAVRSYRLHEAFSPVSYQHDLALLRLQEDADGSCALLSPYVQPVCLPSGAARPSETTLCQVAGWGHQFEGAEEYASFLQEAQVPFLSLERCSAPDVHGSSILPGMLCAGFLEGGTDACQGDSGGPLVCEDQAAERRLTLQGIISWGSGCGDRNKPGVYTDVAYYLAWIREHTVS
T1 sequence (P00748 20-372 limits assumed): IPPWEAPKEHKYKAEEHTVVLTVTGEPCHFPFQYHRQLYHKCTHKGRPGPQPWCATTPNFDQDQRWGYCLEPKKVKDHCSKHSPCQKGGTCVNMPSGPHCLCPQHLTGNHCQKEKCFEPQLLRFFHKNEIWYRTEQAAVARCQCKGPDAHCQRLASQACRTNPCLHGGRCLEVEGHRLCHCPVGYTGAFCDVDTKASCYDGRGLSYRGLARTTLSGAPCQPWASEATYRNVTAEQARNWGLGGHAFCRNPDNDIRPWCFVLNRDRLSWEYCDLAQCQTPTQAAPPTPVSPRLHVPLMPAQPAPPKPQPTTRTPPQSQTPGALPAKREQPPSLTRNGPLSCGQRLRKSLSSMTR

Bovine Trypsin = target: T2, Bovine Trypsin (Bos taurus, UniProt P00760); assay: Chromogenic substrate hydrolysis assay, trypsin; format: biochemical
T2 sequence (P00760 24-246): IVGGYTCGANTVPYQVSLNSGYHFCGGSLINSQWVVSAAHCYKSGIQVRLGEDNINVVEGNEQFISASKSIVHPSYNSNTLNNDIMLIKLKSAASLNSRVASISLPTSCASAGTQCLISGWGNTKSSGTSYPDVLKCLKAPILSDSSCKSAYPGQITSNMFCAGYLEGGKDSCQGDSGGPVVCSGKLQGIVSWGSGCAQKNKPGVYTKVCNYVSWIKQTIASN

Bovine Chymotrypsin = Bovine Chymotrypsin (Bos taurus, UniProt P00766); assay: Chromogenic substrate hydrolysis assay, chymotrypsin; format: biochemical; conditions: FXa over chymotrypsin
human plasma = conditions: comparators in clinical trials; cited from earlier work

Sequence of human FXa (P00742 235-488 limits assumed): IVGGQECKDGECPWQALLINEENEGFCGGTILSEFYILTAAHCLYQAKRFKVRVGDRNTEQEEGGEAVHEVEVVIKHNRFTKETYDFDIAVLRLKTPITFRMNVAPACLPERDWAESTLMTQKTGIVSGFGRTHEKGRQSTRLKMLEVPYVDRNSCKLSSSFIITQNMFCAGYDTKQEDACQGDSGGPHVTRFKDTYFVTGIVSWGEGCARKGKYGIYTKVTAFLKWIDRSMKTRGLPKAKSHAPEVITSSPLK
Sequence of human FXa (P00742 41-179 limits assumed): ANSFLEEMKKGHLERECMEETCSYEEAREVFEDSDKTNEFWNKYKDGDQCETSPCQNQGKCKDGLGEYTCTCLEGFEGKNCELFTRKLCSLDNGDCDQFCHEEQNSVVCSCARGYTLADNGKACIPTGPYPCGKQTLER
Sequence of Human FXIa (P03951 388-625 limits assumed): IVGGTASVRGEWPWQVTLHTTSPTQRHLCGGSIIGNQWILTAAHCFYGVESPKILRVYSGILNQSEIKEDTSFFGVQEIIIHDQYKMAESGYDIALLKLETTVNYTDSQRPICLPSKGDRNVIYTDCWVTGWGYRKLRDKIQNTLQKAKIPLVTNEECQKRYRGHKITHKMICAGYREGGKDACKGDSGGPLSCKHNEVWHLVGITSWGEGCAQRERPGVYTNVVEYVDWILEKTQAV
Sequence of Human FXIa (P03951 19-387 limits assumed): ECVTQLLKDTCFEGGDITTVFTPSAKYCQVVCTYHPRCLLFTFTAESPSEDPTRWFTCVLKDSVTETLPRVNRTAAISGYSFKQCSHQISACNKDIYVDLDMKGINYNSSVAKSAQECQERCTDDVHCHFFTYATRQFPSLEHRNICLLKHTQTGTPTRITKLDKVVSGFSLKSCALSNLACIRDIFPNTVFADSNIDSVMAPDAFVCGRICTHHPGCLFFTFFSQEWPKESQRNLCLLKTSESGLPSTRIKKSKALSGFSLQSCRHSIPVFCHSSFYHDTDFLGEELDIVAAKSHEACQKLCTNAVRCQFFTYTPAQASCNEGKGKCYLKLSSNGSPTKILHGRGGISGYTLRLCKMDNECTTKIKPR
Sequence of Human FIXa (P00740 227-461 limits assumed): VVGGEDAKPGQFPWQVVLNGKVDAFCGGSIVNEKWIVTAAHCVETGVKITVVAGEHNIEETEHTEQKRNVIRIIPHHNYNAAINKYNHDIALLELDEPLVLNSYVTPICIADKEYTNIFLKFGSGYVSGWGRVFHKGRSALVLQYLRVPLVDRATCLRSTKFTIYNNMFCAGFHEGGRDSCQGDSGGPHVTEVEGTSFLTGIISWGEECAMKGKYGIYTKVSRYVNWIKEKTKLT
Sequence of Human FIXa (P00740 47-191 limits assumed): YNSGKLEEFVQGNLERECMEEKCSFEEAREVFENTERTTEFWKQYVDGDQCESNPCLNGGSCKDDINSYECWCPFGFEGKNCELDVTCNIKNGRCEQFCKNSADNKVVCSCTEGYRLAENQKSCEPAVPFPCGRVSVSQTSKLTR
Sequence of Human FVIIa (P08709 213-466 limits assumed): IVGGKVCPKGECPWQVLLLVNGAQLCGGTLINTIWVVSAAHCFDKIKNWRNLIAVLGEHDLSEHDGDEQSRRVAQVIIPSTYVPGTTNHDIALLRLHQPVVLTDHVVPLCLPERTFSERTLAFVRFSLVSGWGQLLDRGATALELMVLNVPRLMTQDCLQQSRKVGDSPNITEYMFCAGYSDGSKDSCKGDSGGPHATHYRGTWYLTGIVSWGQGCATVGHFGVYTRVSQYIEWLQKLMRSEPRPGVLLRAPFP
Sequence of Human FVIIa (P08709 61-212 limits assumed): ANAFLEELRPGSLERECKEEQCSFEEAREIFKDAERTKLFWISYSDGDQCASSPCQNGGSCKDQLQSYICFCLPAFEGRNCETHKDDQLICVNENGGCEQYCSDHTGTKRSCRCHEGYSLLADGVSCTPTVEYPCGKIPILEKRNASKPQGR
Sequence of Human FVIIa (P13726 33-295 partner): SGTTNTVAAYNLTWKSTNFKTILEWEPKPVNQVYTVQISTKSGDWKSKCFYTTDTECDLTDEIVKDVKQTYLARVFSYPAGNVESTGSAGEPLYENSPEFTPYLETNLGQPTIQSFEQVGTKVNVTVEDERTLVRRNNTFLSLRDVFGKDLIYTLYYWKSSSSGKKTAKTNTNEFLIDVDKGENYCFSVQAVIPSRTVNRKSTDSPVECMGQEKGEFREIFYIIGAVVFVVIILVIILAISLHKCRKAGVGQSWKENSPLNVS

SMILES	pKi (human FXa)	fold decrease in IC50 relative to inhibitor 13 (human FXa; FXa inhibition, relative to 13 (IC50 = 16.4 μM))	selectivity for FXa inhibition over other coagulation enzymes (human FXa; over FIIa, FVIIa, FIXa, FXIa, and FXIIa)	Selectivity Index (Human FIIa)	Selectivity Index (Human FVIIa)	Selectivity Index (Human FIXa)	Selectivity Index (Human FXIa)	Selectivity Index (Human FXIIa)	pIC50 (Bovine Trypsin)	Selectivity Index (Bovine Trypsin; FXa over Bovine Trypsin)	selectivity against trypsin (Bovine Trypsin; FXa over trypsin)	selectivity against chymotrypsin (Bovine Chymotrypsin)	PT, concentration doubling the clotting time (human plasma)
O=C(Nc1ccc(N2CCOCC2=O)cc1)[C@H]1Cc2ccccc2CN1C(=O)Cc1ccc(Cl)cc1 [Inhibitor 47, (R)-2-(2-(4-chlorophenyl)acetyl)-N-(4-(3-oxomorpholino)phenyl)-1,2,3,4-tetrahydro-isoquinoline-3-carboxamide]	6.87	~ 60 fold	at least 1852 fold	>1852	>3703	>3703	>1852	>1852	< 4.00	>370	at least 370 fold	≥ 279 fold	–
CN(C)Cc1nccn1-c1ccc(NC(=O)c2cc(C(F)(F)F)nn2-c2ccc3onc(N)c3c2)c(F)c1 [razaxaban, 1-(3′-aminobenzisoxazol-5′-yl)-3-trifluoromethyl-N-[2-fluoro-4-[(2′-dimethylamino-methyl)imidazol-1-yl]phenyl]-1H-pyrazole-5-carboxyamide hydrochloride]	–	–	–	–	–	–	–	–	–	–	–	–	3.8 µM

— publication PMC3408863 (European journal of medicinal chemistry, 2012)
